Measured values from US8431585B2, “Use of inhibitors of the EGFR-mediated signal transduction for the treatment of benign prostatic hyperplasia (BPH)/prostatic hypertrophy” (Boehringer Ingelheim Pharma GmbH & Co. KG, priority 2002, dated 2013).
Marks after values point to notes of the source that are not given here.

Test system: prostate
Experiment: Prostate-reducing activity: prostate weight of male rats after 14-15 days of once-daily oral treatment with an EGF-R-TK inhibitor
Format: in vivo
Procedure: The active substance is administered once a day as a suspension through an oesophageal tube. After the test period has ended the animals are killed, their prostates are removed and weighed.

[1] = 10 mg/kg once a day by oesophageal tube, length of treatment 14 days
[2] = 30 mg/kg once a day by oesophageal tube, length of treatment 14 days
[3] = 100 mg/kg once a day by oesophageal tube, length of treatment 14 days
[4] = 10 mg/kg once a day by oesophageal tube, length of treatment 15 days
[5] = 30 mg/kg once a day by oesophageal tube, length of treatment 15 days
[6] = 100 mg/kg once a day by oesophageal tube, length of treatment 15 days

Structure (SMILES): CN(CC=CC(=O)Nc1cc2c(Nc3ccc(F)c(Cl)c3)ncnc2cc1OC1CCCC1)C1CC1 [compound b, 4-[(3-chloro-4-fluorophenyl)amino]-6-{[4-(N-cyclopropyl-N-methyl-amino)-1-oxo-2-buten-1-yl]amino}-7-cyclopentyloxy-quinazoline]
- average absolute weight (prostate) [1]: 0.3983* g
- average relative weight [% of body weight] (prostate) [1]: 0.1622* % of body weight
- average relative weight [% of the brain] (prostate) [1]: 20.23* % of the brain
- average absolute weight (prostate) [2]: 0.3989 g
- average relative weight [% of body weight] (prostate) [2]: 0.1697 % of body weight
- average relative weight [% of the brain] (prostate) [2]: 20.71* % of the brain
- average absolute weight (prostate) [3]: 0.1848* g
- average relative weight [% of body weight] (prostate) [3]: 0.1191* % of body weight
- average relative weight [% of the brain] (prostate) [3]: 10.13* % of the brain

Structure (SMILES): CN(C)CC=CC(=O)Nc1cc2c(Nc3ccc(F)c(Cl)c3)ncnc2cc1OC[C@@H]1CCCO1 [compound c, 4-[(3-chloro-4-fluorophenyl)amino]-6-{[4-(N,N-dimethylamino)-1-oxo-2-buten-1-yl]amino}-7-[(S)-(tetrahydrofuran-2-yl)methoxy]-quinazoline]
- average absolute weight (prostate) [4]: 0.3854* g
- average relative weight [% of body weight] (prostate) [4]: 0.1681 % of body weight
- average relative weight [% of the brain] (prostate) [4]: 19.67* % of the brain
- average absolute weight (prostate) [5]: 0.2242* g
- average relative weight [% of body weight] (prostate) [5]: 0.1117* % of body weight
- average relative weight [% of the brain] (prostate) [5]: 11.50* % of the brain
- average absolute weight (prostate) [6]: 0.1463* g
- average relative weight [% of body weight] (prostate) [6]: 0.0892* % of body weight
- average relative weight [% of the brain] (prostate) [6]: 7.63* % of the brain
